Key:
[1] = Pharmacokinetics of OC246 after single oral administration; type: in vivo, female NMRI mice; conditions: single oral 50 mg/kg
Method: Pharmacokinetics were assessed for OC246 after single oral (p.o.) administration in female NMRI mice. The compound OC246 was suspended at 50 mg/kg with Lipoid S100 and Myritol 318. Oral dose was 50 mg/kg, Final Concentration 10 mg/ml and Administration Volume 5.0 ml/kg. Blood samples were taken from three mice at individual time points after 0.25, 0.5, 1, 2, 4, 6, 8, 16, and 24 hours from administration, and analyzed using HPLC and mass-spectroscopic bioanalytical methods.
obs: observed; tmax: time point at Cmax; tlast: time at last quantifiable concentration; Cmax: maximum observed concentration; Clast: last quantifiable concentration; SE: standard error; AUClast: area under the concentration-time curve (AUC) calculated with trapezoidal rule between dosing time to the last measurement time point with a conc. value above the lower limit of quantification; AUCinf(obs): AUC calculated using the trapezoidal rule from 0 hours to infinity; AUC % extrapol: percentage of AUCinf(obs) that is due to the extrapolation from tlast to infinity; Rsq: goodness of fit for the determination λz in the terminal elimination phase; λz(Lambda_z): terminal elimination rate constant (of at least three last measured concentrations); t1/2: apparent terminal elimination half-life; CLobs: observed total (systemic) body clearance; Vz_obs: apparent volume of distribution based on AUClast and λz.

[2] = test system: Retinoblastoma Protein pRb1; experiment: Western blot of SiHa (HPV+) cell extracts; type: cell-based, human; conditions: 10 μM, 12 and 24 hours
Hela (ATCC CCL-2) = experiment: Monolayer SRB assay, Hela; type: cell-based; conditions: Homo sapiens, 72 hrs, HPV18
Method: (§1) Various cell culture cells grown as monolayers are harvested from exponential growing cultures after treatment with various OC compounds at different concentrations. For this depending on the cell line, 10.000 to 30.000 cells were plated in 96-well flat-bottom microtiter plates. After a 24 h recovery period to allow cells to resume exponential growth, supernatants are discarded and 100 μl of culture medium (eight control wells/plate) or culture medium with the test compound are added by a liquid handling robotic system (Microlab® Starlet, Hamilton) and treatment continued for 72 hrs. Compounds are applied at 9 concentrations and eight wells/concentration). At least three independent experiments are performed. For SRB staining, cells are fixed with SRB01 (Tab. 5) for 1 h at 4° C. […] Optical density is assessed using a plate-reader (Sunrise, Tecan©) at 540 nm.
(§2) Concentrations required for half maximal response of the compound for cell growth inhibition (EC50) is calculated by non-linear regression (log[conc. of inhibitor] versus response (% T/C)) using the analysis software GraphPad Prism®, Prism 5 for windows, version 5.01 (GraphPad Software Inc., CA).

[3] = test system: peripheral blood mononuclear cells (PBMC); experiment: Monolayer SRB assay, PBMC; type: cell-based
Method: as §1, §2

SARS-CoV-2 = experiment: SARS-CoV-2/Huh7-EGFP HTS antiviral Assay (96-well); type: cell-based; conditions: Severe acute respiratory syndrome coronavirus 2, Huh-7; sublethal dose of 10 μM, Huh7, n4
HPV16 E7 protein = experiment: Western blot of E7 steady state level in CaSki cells; type: cell-based; conditions: 10 μM, up to 24 hours
Method: B) For cells in cell culture the following procedure for the preparation of a total cell extract is used. Freshly seeded cells are grown for 24 hours to obtain 65-75% confluency (corresponds for CaSki cells to a plating of approx. 2×10^6 cells/10 cm Ø cell culture dish). Cell culture dishes with medium are out on ice for 5 minutes.
Lysed cells are scraped off the dish and transfers to microcentrifuge tubes, followed by 2×10 sec sonication to complete cell lysis at room temperature. The samples are heated at 96° C. for 10 min and centrifuged for 5 min at 12000 g at room temperature.
Endogenous E7 proteins are rigid, tightly folded molecules and are bound only transiently onto […] membranes during protein blotting procedures, in particular employing semidry methods. Thus, for protein blotting a buffer system containing 40% (v/v) of Methanol is used. These buffers tend to be unstable and therefore freshly prepared solutions need to be used. E7 antibodies are used in TBET at pH7.8. Under these conditions western blot transfer is not complete for most other proteins. If staining of different proteins of the same gel is done, the gel is divided prior to blotting, 40% Methanol is used in the transfer buffer for E7 and a transfer buffer containing 20% Methanol is used for most of the other markers. […]

[4] = female, NMRI, mouse, blood, mean

SMILES	half-life ([1]; female, NMRI, mouse, blood) [h]	Tmax ([1]; female, NMRI, mouse, blood, Lipoid S100 and Myritol 318, mean) [h]	AUC(0-t) [1, 4] [ng·h/mL]	Cmax [1, 4] [ng/mL]	AUC(0-inf) ([1]; female, NMRI, mouse, blood, mean, read-out: AUCinf(obs)) [ng·h/mL]	concentration at 24 h ([1]; female, NMRI, mouse, blood, mean, read-out: Clast) [ng/mL]	AUC% extrapol (obs) [1] [%]	CLobs [1] [mL/min/kg]	Vz_obs [1] [L/kg]	λz (terminal elimination rate constant) [1] [h⁻¹]	tlast ([1]; mean) [h]	Rb protein signals [2]	EC50 (Hela (ATCC CCL-2)) [nM]	EC50 [3] [nM]	inhibition at 10 µM (SARS-CoV-2) [%]	HPV16 E7 protein level, time course (HPV16 E7 protein)	HPV16 E7 protein level, time course (HPV16 E7 protein; listed as Vsp035)
Cc1ccc(CN2C(=O)c3ccccc3[C@H](C(=O)Nc3cccc(N4CCN(C)CC4)c3)[C@@H]2c2ccc(C(F)(F)F)cc2)cc1 [OC246, N-[3-(4-methylpiperazin-1-yl)phenyl]-2-[(4-methylphenyl)methyl]-1-oxo-3-[4-(trifluoromethyl)phenyl]-1,2,3,4-tetrahydroisoquinoline-4-carboxamide]	2.25	2	11500	1740	11500	5.18	0.146	72.38	14.073	0.309	24.00	increase of Rb protein signals	2680	> 100000			
CN1CCC(CN2C(=O)c3ccccc3[C@H](C(=O)Nc3cccc(N4CCN(C)CC4)c3)[C@H]2c2ccc(C(F)(F)F)cc2)CC1 [VSP035, (3S,4S)-N-[3-(4-methylpiperazin-1-yl)phenyl]-2-[(1-methylpiperidin-4-yl)methyl]-1-oxo-3-[4-(trifluoromethyl)phenyl]-1,2,3,4-tetrahydroisoquinoline-4-carboxamide]															72 ± 7.7	steady decline over time	stable e7 reduction

From patent US12630523B2, “Isoquinoline derivatives for use as antiviral and antitumour agents” (priority 2021, dated 2026)
